In brackets after ≈: the same amount, converted by molar mass. Entries after “also recorded” stand apart in the source; their conditions may differ.
Experiments:
[1] = tested on: hyperalgesia induced by Freund's complete adjuvant (CFA) in rats; experiment: Therapeutic effect on CFA induced hyperalgesia in rats (overall conclusion of Von Frey and weight bearing tests); format: in vivo, SD rats; details: for anti-hyperalgesia effect at high dose: high dose i.v.: JK-02H 20 mg/kg, 46 and JK-02A 40 mg/kg; for anti-hyperalgesia effect at high dose / anti-hyperalgesia effect at low dose: compared with vehicle; for anti-hyperalgesia effect at low dose: low dose i.v.: JK-02H 5 mg/kg, 46 and JK-02A 10 mg/kg
Experimental: . A repeat efficacy study was carried out on the same batch of animals with a single-dose treatment followed by a washing-out period. The 14 days in life studies included two stages: a single low dose treatment assessment on the 7th day and then a single high dose treatment test on the 14th day after CFA injection.
On the 7th day after CFA injection, the rats were randomly assigned to respective groups using a computer generated randomization procedure based on the body weight and the baseline values of Von Frey and weight bearing test. Animals received corresponding single dose treatments (vehicle and 3 test articles) on the 7th and 14th days after CFA injection, respectively, and the effect of the test compounds were evaluated. Hyperalgesia of all the study animals was assessed following a single low dose treatment with the test articles on day 7, while a single high dose effect of the test article was evaluated on day 14.
The mechanical hyperalgesia and weight bearing were measured on day 7 and day 14 after CFA injection, followed by administration of control or test articles. Von Frey filaments and weight bearing were measured on all the study animals at three time points on day 7, and four time points on day 14. An extra time point assessment was conducted on day 14, considering the strong analgesic effect of the test articles at a higher dose noticed during the test at the 3th time point.
The effects of compounds 46, JK-02A and JK-02H on CFA induced hyperalgesia in rats were assessed with Von Frey and weight bearing tests following single injection.

[2] = Test of water solubility of the compounds; details: for Volume of added water: about 0.1 g sample, room temperature, water added until dissolved; for solubility: water, thermodynamic from solid
Experimental: At room temperature, about 0.1 g of each sample to be tested (solid materials should be ground as powder) was added to a 10 mL cylinder with a ground glass stopper. Water was gradually added. After each addition of 0.5 mL water, the resulting solution was stirred for 10 min for mixing, and was then visually examined for the presence of any undissolved sample. If there still exists undissolved sample or undissolved portions of the sample after 10 mL water was added, the test would be continued in a 100 mL cylinder.

SMILES | anti-hyperalgesia effect at high dose [1] | anti-hyperalgesia effect at low dose [1] | Volume of added water [2] [mL] | solubility [2] [mg/mL] | therapeutic effect when the test time was prolonged to 5 h ([1]; high dose (20 mg/kg), 5 h post treatment) | anti-hyperalgesia effect at high dose ([1]; hydrochloride) | anti-hyperalgesia effect at low dose ([1]; hydrochloride) | water solubility, times higher than that of compound 46 ([2]; relative to compound 46 (parent compound))
CCCOc1ccc(F)c(F)c1C(=O)c1ccc(C(=O)N[C@@H]2CNC[C@H]2NC(=O)c2ccc3cn[nH]c3c2)cc1 [JK-02A] | showed anti-hyperalgesia effects | not significant | 71.5 | 1.4 (≈ 2560 µM) | – | – | – | –
Cl.O=C(N[C@@H]1CNC[C@H]1NC(=O)c1ccc2cn[nH]c2c1)c1ccc(C(=O)c2c(OCCOCCO)ccc(F)c2F)cc1 [JK-02H, (3R,4R)-3-{4-[2,3-difluoro-6-(5-hydroxy-3-oxapentan-1-oxy)]benzoyl}benzamido-4-(1H-indazole-6-carboxamido)pyrrolidine hydrochloride] | – | – | 13.5 | 7.4 | very remarkable therapeutic effect | excellent anti-hyperalgesia effect; also recorded: significant anti-hyperalgesia effects | excellent anti-hyperalgesia effect; also recorded: significant anti-hyperalgesia effects | about 5 times
CCCOc1ccc(O)c(F)c1C(=O)c1ccc(C(=O)N[C@@H]2CNC[C@H]2NC(=O)c2ccc3cn[nH]c3c2)cc1 [compound 46] | anti-hyperalgesia effect; also recorded: showed anti-hyperalgesia effects | barely showed any anti-hyperalgesia effect; also recorded: not significant | 66.5 | 1.5 (≈ 2750 µM) | – | – | – | –

Source: patent US9567319B2, “Compound having higher inhibitory activity on protein kinase G and preparation method thereof” (Jenkem Technology Co., Ltd., (Tianjin), priority 2014, dated 2017)
